PubChem BioAssay AID256 (DTP/NCI, 2004)
Several values for one entry are separate records, joined by “and”; a condition that tells them apart may be missing. Identical values can stand only once. Inconclusive results and toxic doses are left out.

Tested on: CD2F1 mice, L1210 leukemia ip, survival T/C
Assay: NCI In Vivo Anticancer Drug Screen. Data for tumor model L1210 Leukemia (intraperitoneal) in CD2F1 (CDF1) mice
Conditions: higher = longer survival
Summary of the method: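 Mice carrying a transplanted tumor received test compound or vehicle alone. The value is the measurement in the treated group divided by that in the vehicle-treated control group.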

[1] = endpoint: mean survival time, dose: 75.0 mg/kg/injection, schedule: Q01DX001 (ip), vehicle: saline
[2] = endpoint: mean survival time, dose: 100.0 mg/kg/injection, schedule: Q01DX001 (ip), vehicle: saline with Tween-80
[3] = endpoint: mean survival time, dose: 200.0 mg/kg/injection, schedule: Q01DX001 (ip), vehicle: saline with Tween-80
[4] = endpoint: mean survival time, dose: 400.0 mg/kg/injection, schedule: Q01DX001 (ip), vehicle: saline with Tween-80
[5] = endpoint: mean survival time, dose: 50.0 mg/kg/injection, schedule: Q01DX009 (ip), vehicle: Klucel (hydroxypropylcellulose) (HPC)
[6] = endpoint: mean survival time, dose: 100.0 mg/kg/injection, schedule: Q01DX009 (ip), vehicle: Klucel (hydroxypropylcellulose) (HPC)
[7] = endpoint: mean survival time, dose: 200.0 mg/kg/injection, schedule: Q01DX009 (ip), vehicle: Klucel (hydroxypropylcellulose) (HPC)
[8] = endpoint: mean survival time, dose: 100.0 mg/kg/injection, schedule: Q04DX003 (ip), vehicle: saline with Tween-80
[9] = endpoint: mean survival time, dose: 200.0 mg/kg/injection, schedule: Q04DX003 (ip), vehicle: saline with Tween-80
[10] = endpoint: mean survival time, dose: 400.0 mg/kg/injection, schedule: Q04DX003 (ip), vehicle: saline with Tween-80
[11] = endpoint: mean survival time, dose: 100.0 mg/kg/injection, schedule: Q01DX001 (ip), vehicle: Klucel (hydroxypropylcellulose) (HPC)
[12] = endpoint: mean survival time, dose: 200.0 mg/kg/injection, schedule: Q01DX001 (ip), vehicle: Klucel (hydroxypropylcellulose) (HPC)
[13] = endpoint: mean survival time, dose: 400.0 mg/kg/injection, schedule: Q01DX001 (ip), vehicle: Klucel (hydroxypropylcellulose) (HPC)
[14] = endpoint: mean survival time, dose: 50.0 mg/kg/injection, schedule: Q01DX009 (ip), vehicle: saline with Tween-80
[15] = endpoint: mean survival time, dose: 37.5 mg/kg/injection, schedule: Q01DX009 (ip), vehicle: saline
[16] = endpoint: mean survival time, dose: 200.0 mg/kg/injection, schedule: Q01DX001 (ip), vehicle: other
[17] = endpoint: mean survival time, dose: 400.0 mg/kg/injection, schedule: Q01DX009 (ip), vehicle: Klucel (hydroxypropylcellulose) (HPC)
[18] = endpoint: mean survival time, dose: 25.0 mg/kg/injection, schedule: Q01DX009 (ip), vehicle: saline with Tween-80
[19] = endpoint: mean survival time, dose: 100.0 mg/kg/injection, schedule: Q04DX002 (ip), vehicle: saline with Tween-80
[20] = endpoint: mean survival time, dose: 200.0 mg/kg/injection, schedule: Q04DX002 (ip), vehicle: saline with Tween-80

In the case of `CCC(=O)OC1=CC(=O)c2ccccc2C1=O`, the T/C [1] is reported as 101 % of control and the T/C (endpoint: mean survival time, dose: 150.0 mg/kg/injection, schedule: Q01DX001 (ip), vehicle: saline) is reported as 105 % of control.

With `Cc1cc(O)c(C(C)(C)C)cc1C(c1ccccc1)c1cc(C(C)(C)C)c(O)cc1C` the T/C [2] was 93 % of control, the T/C [3] was 93 % of control and the T/C [4] was 95 % of control.

In the case of `Cc1ccc2c(c1)-c1[nH]c3ccccc3c1CS2`, the T/C [5] is reported as 109 % of control, the T/C [6] is reported as 107 % of control and the T/C [7] is reported as 107 % of control.

For `OC(c1ccccc1)(c1ccccc1)c1ccccc1` (tested in a mixture with another compound), the T/C [8] was 98 % of control, the T/C [9] was 91 % of control and the T/C [10] was 97 % of control.

For `NCc1cc(O)c(O)c(O)c1`, the T/C (endpoint: median survival time, dose: 37.5 mg/kg/injection, schedule: Q01DX005 (ip), vehicle: saline) was 114 % of control, the T/C (endpoint: median survival time, dose: 150.0 mg/kg/injection, schedule: Q01DX005 (ip), vehicle: saline) was 153 % of control and the T/C (endpoint: median survival time, dose: 300.0 mg/kg/injection, schedule: Q01DX005 (ip), vehicle: saline) was 156 % of control and 160 % of control.

For `O=C(Nc1ccccc1)Nc1ccc(N(CCCl)CCCl)cc1`, the T/C [11] was 105 % of control, the T/C [12] was 108 % of control and the T/C [13] was 114 % of control.

`CCNC(=S)Nc1ccccc1` was tested, and the T/C [14] was 103 % of control, the T/C (endpoint: mean survival time, dose: 100.0 mg/kg/injection, schedule: Q01DX009 (ip), vehicle: saline with Tween-80) was 100 % of control and the T/C (endpoint: mean survival time, dose: 200.0 mg/kg/injection, schedule: Q01DX009 (ip), vehicle: saline with Tween-80) was 111 % of control.

With `CS(=O)(=O)C(Br)(Br)S(C)(=O)=O` the T/C (endpoint: mean survival time, dose: 4.7 mg/kg/injection, schedule: Q01DX001 (ip), vehicle: saline with Tween-80) was 103 % of control and the T/C (endpoint: mean survival time, dose: 9.4 mg/kg/injection, schedule: Q01DX001 (ip), vehicle: saline with Tween-80) was 100 % of control.

In the case of `CCOC1=NC(C)(C)CC(C)O1` (stereo not drawn), the T/C (endpoint: mean survival time, dose: 25.0 mg/kg/injection, schedule: Q01DX009 (ip), vehicle: saline) is reported as 109 % of control, the T/C (endpoint: mean survival time, dose: 50.0 mg/kg/injection, schedule: Q01DX009 (ip), vehicle: saline) is reported as 109 % of control and the T/C (endpoint: mean survival time, dose: 100.0 mg/kg/injection, schedule: Q01DX009 (ip), vehicle: saline) is reported as 103 % of control. For the same compound, the T/C (endpoint: mean survival time, dose: 100.0 mg/kg/injection, schedule: Q04DX003 (ip), vehicle: saline) was 97 % of control.

`C=C1CC2C=CC1C2` (stereo not drawn) (tested in a mixture with another compound) was tested, and the T/C (endpoint: mean survival time, dose: 80.5 mg/kg/injection, schedule: Q01DX009 (ip), vehicle: saline with Tween-80) was 90 % of control.

`COc1cc(C=Nc2ccc(-n3ccnc3C)cc2)ccc1N(CCCl)CCCl` was tested, and the T/C (endpoint: mean survival time, dose: 2.5 mg/kg/injection, schedule: Q01DX009 (ip), vehicle: saline with Tween-80) was 98 % of control, the T/C (endpoint: mean survival time, dose: 5.0 mg/kg/injection, schedule: Q01DX009 (ip), vehicle: saline with Tween-80) was 113 % of control and the T/C (endpoint: mean survival time, dose: 10.0 mg/kg/injection, schedule: Q01DX009 (ip), vehicle: saline with Tween-80) was 112 % of control. The T/C (endpoint: mean survival time, dose: 20.0 mg/kg/injection, schedule: Q01DX009 (ip), vehicle: saline with Tween-80) was 117 % of control.

In the case of `COC(=O)CCC(C)(c1ccc(O)cc1)c1ccc(O)cc1`, the T/C [8] is reported as 103 % of control, the T/C [9] is reported as 97 % of control and the T/C [10] is reported as 91 % of control.

With `O=C(O)C(=O)Cc1cccc(Cl)c1[N+](=O)[O-]` the T/C [15] was 97 % of control, the T/C (endpoint: mean survival time, dose: 75.0 mg/kg/injection, schedule: Q01DX009 (ip), vehicle: saline) was 103 % of control and the T/C (endpoint: mean survival time, dose: 150.0 mg/kg/injection, schedule: Q01DX009 (ip), vehicle: saline) was 97 % of control.

For `CC1=CC(=O)[C@@H](O)[C@]2(C)[C@H]3[C@@]4(O)OC[C@]35[C@H]([C@@H](C)[C@H]4O)[C@@H](OC(=O)c3ccccc3)C(=O)O[C@@H]5C[C@@H]12`, the T/C (endpoint: mean survival time, dose: 0.25 mg/kg/injection, schedule: Q01DX009 (ip), vehicle: saline with Tween-80) was 105 % of control, the T/C (endpoint: mean survival time, dose: 0.5 mg/kg/injection, schedule: Q01DX009 (ip), vehicle: saline with Tween-80) was 100 % of control and the T/C (endpoint: mean survival time, dose: 1.0 mg/kg/injection, schedule: Q01DX009 (ip), vehicle: saline with Tween-80) was 100 % of control. The T/C (endpoint: mean survival time, dose: 2.0 mg/kg/injection, schedule: Q01DX009 (ip), vehicle: saline with Tween-80) was 105 % of control.

For `COc1cc(C=Nc2cc(Br)cc(Br)c2)ccc1N(CCCl)CCCl`, the T/C [16] was 150 % of control.

`O=C(N/N=C/c1ccc(O)cc1)c1ccccc1` was tested, and the T/C (endpoint: mean survival time, dose: 100.0 mg/kg/injection, schedule: Q01DX001 (ip), vehicle: other) was 100 % of control, the T/C [6] was 100 % of control and the T/C [16] was 94 % of control. For the same compound, the T/C [7] was 96 % of control, the T/C (endpoint: mean survival time, dose: 400.0 mg/kg/injection, schedule: Q01DX001 (ip), vehicle: other) was 103 % of control and the T/C [17] was 94 % of control.

In the case of `CN(C)C(=O)Oc1cccc(NC(=O)Nc2cccc(OC(=O)N(C)C)c2)c1`, the T/C [2] is reported as 105 % of control, the T/C [3] is reported as 98 % of control and the T/C [4] is reported as 97 % of control.

`COc1ccc(OC)c(C(=O)C[n+]2ccccc2)c1` was tested, and the T/C (endpoint: mean survival time, dose: 12.5 mg/kg/injection, schedule: Q01DX009 (ip), vehicle: saline with Tween-80) was 101 % of control, the T/C (endpoint: mean survival time, dose: 12.5 mg/kg/injection, schedule: Q04DX003 (ip), vehicle: saline) was 106 % of control and the T/C [18] was 103 % of control. The T/C (endpoint: mean survival time, dose: 25.0 mg/kg/injection, schedule: Q04DX003 (ip), vehicle: saline) was 109 % of control, the T/C [14] was 100 % of control and the T/C (endpoint: mean survival time, dose: 50.0 mg/kg/injection, schedule: Q04DX003 (ip), vehicle: saline) was 111 % of control.

In the case of `Oc1ccccc1C=NC1CCCCC1N=Cc1ccccc1O.[Ni]` (stereo not drawn), the T/C (endpoint: mean survival time, dose: 50.0 mg/kg/injection, schedule: Q04DX002 (ip), vehicle: saline with Tween-80) is reported as 89 % of control, the T/C [19] is reported as 97 % of control and the T/C [20] is reported as 97 % of control. The T/C (endpoint: mean survival time, dose: 400.0 mg/kg/injection, schedule: Q04DX002 (ip), vehicle: saline with Tween-80) was 93 % of control.

For `CC(C)(C)C1=CC(=O)C(C#N)=C(C#N)C1=O`, the T/C [18] was 96 % of control.

In the case of `CC(=O)Oc1ccc(N2C(=O)C3C(C2=O)C2c4ccccc4C3C3CCCCN32)cc1` (stereo not drawn) (tested in a mixture with another compound), the T/C (endpoint: mean survival time, dose: 25.0 mg/kg/injection, schedule: Q01DX009 (ip), vehicle: water) is reported as 101 % of control, the T/C (endpoint: mean survival time, dose: 50.0 mg/kg/injection, schedule: Q01DX009 (ip), vehicle: water) is reported as 95 % of control and the T/C (endpoint: mean survival time, dose: 100.0 mg/kg/injection, schedule: Q01DX009 (ip), vehicle: water) is reported as 95 % of control. For the same compound, the T/C (endpoint: mean survival time, dose: 200.0 mg/kg/injection, schedule: Q01DX009 (ip), vehicle: water) was 90 % of control.

In the case of `N#CSC/C(Br)=C/Br`, the T/C (endpoint: mean survival time, dose: 6.25 mg/kg/injection, schedule: Q04DX003 (ip), vehicle: saline with Tween-80) is reported as 97 % of control, the T/C (endpoint: mean survival time, dose: 12.5 mg/kg/injection, schedule: Q04DX003 (ip), vehicle: saline with Tween-80) is reported as 103 % of control and the T/C (endpoint: mean survival time, dose: 25.0 mg/kg/injection, schedule: Q04DX003 (ip), vehicle: saline with Tween-80) is reported as 92 % of control.

For `O=S(=O)(F)c1ccc(C[P+](c2ccccc2)(c2ccccc2)c2ccccc2)c(Cl)c1`, the T/C (endpoint: mean survival time, dose: 18.8 mg/kg/injection, schedule: Q01DX009 (ip), vehicle: saline) was 103 % of control, the T/C (endpoint: mean survival time, dose: 18.8 mg/kg/injection, schedule: Q04DX003 (ip), vehicle: saline) was 114 % of control and the T/C [15] was 100 % of control. The T/C (endpoint: mean survival time, dose: 37.5 mg/kg/injection, schedule: Q04DX003 (ip), vehicle: saline) was 116 % of control, the T/C [1] was 103 % of control and the T/C (endpoint: mean survival time, dose: 75.0 mg/kg/injection, schedule: Q04DX003 (ip), vehicle: saline) was 112 % of control.

For `O=C(N/N=C/c1ccc2c(c1)CCC2)c1ccccc1[N+](=O)[O-]`, the T/C [11] was 95 % of control, the T/C [12] was 94 % of control and the T/C [9] was 89 % of control. For the same compound, the T/C [13] was 97 % of control and the T/C [10] was 96 % of control.

For `CC(CCOc1ccc(Cl)cc1Cl)C(=O)O` (stereo not drawn), the T/C [19] was 104 % of control and the T/C [20] was 86 % of control.

In the case of `c1ccc(-c2nnc(-c3ccccn3)nn2)nc1`, the T/C (endpoint: mean survival time, dose: 12.5 mg/kg/injection, schedule: Q01DX009 (ip), vehicle: Klucel (hydroxypropylcellulose) (HPC)) is reported as 103 % of control, the T/C (endpoint: mean survival time, dose: 25.0 mg/kg/injection, schedule: Q01DX009 (ip), vehicle: Klucel (hydroxypropylcellulose) (HPC)) is reported as 101 % of control and the T/C [5] is reported as 106 % of control. For the same compound, the T/C [6] was 101 % of control, the T/C [7] was 95 % of control and the T/C [17] was 101 % of control.
